Experimental data: PubChem BioAssay (NCI)
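Values below derive from 48-hour exposures of cells grown in 96-well plates, with endpoints linearly interpolated between the two concentrations bracketing the appropriate inhibition level. GI50 marks 50% less growth. The concentration for full growth arrest is given as TGI.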

Test system: MOLT-4 leukemia
Test: inhibition of tumour cell growth, NCI panel, 48 h

With `CC(=O)N=C1N(/C=C2\C(=O)Oc3ccccc3C2=O)C(=O)/C(=C/c2cccc(Cl)c2Cl)N1C` the TGI was > 100 µM.

Test system: NCI-H226 lung
Test: inhibition of tumour cell growth, NCI panel, 48 h

First: Cc1ccnc2[nH]c(-c3ccc4ccccc4c3)cc(=O)c12
Second: CC(=O)N=C1N(/C=C2\C(=O)Oc3ccccc3C2=O)C(=O)/C(=C/c2cccc(Cl)c2Cl)N1C
The TGI of the first is 8.3-fold lower: 11.4 µM for the first, 94.2 µM for the second.

Compared with `N#CC1C(=S)NC(c2ccccc2)=CC12CCCCC2` (stereo not drawn), `CN=C(n1ccnc1)n1ccnc1` is higher in TGI: 77.4 µM for the first, > 100 µM for the second.

Test system: NCI-H23 lung
Test: inhibition of tumour cell growth, NCI panel, 48 h

Compared with `Cc1ccnc2[nH]c(-c3ccc4ccccc4c3)cc(=O)c12`, `CC(=O)N=C1N(/C=C2\C(=O)Oc3ccccc3C2=O)C(=O)/C(=C/c2cccc(Cl)c2Cl)N1C` is higher in TGI: 15.3 µM for the first, > 100 µM for the second.

Compared with `N#CC1C(=S)NC(c2ccccc2)=CC12CCCCC2` (stereo not drawn), `CN=C(n1ccnc1)n1ccnc1` is higher in TGI: 36.9 µM for the first, > 100 µM for the second.

Test system: NCI-H460 lung
Test: inhibition of tumour cell growth, NCI panel, 48 h

Work on `Cc1ccnc2[nH]c(-c3ccc4ccccc4c3)cc(=O)c12` yielded a GI50 of 1.05 µM.

Compared with `Cc1ccnc2[nH]c(-c3ccc4ccccc4c3)cc(=O)c12`, `N#CC1C(=S)NC(c2ccccc2)=CC12CCCCC2` (stereo not drawn) is higher in TGI: 7.34 µM for the first, > 100 µM for the second.

`CN=C(n1ccnc1)n1ccnc1` was tested, and the TGI was > 100 µM.

Test system: NCI-H522 lung
Test: inhibition of tumour cell growth, NCI panel, 48 h

Compared with `Cc1ccnc2[nH]c(-c3ccc4ccccc4c3)cc(=O)c12`, `CC(=O)N=C1N(/C=C2\C(=O)Oc3ccccc3C2=O)C(=O)/C(=C/c2cccc(Cl)c2Cl)N1C` is higher in TGI: 3.42 µM for the first, > 100 µM for the second.

Going from `N#CC1C(=S)NC(c2ccccc2)=CC12CCCCC2` (stereo not drawn) to `CN=C(n1ccnc1)n1ccnc1`, the TGI rises from 42.2 µM to > 100 µM.

Test system: NCI/ADR-RES ovarian
Test: inhibition of tumour cell growth, NCI panel, 48 h

First: Cc1ccnc2[nH]c(-c3ccc4ccccc4c3)cc(=O)c12
Second: CC(=O)N=C1N(/C=C2\C(=O)Oc3ccccc3C2=O)C(=O)/C(=C/c2cccc(Cl)c2Cl)N1C
The TGI of the first is 8.7-fold lower: 7.14 µM for the first, 62 µM for the second.

`N#CC1C(=S)NC(c2ccccc2)=CC12CCCCC2` (stereo not drawn) and `CN=C(n1ccnc1)n1ccnc1` cannot be ordered by TGI: > 100 µM for the first, > 100 µM for the second.

Test system: OVCAR-3 ovarian
Test: inhibition of tumour cell growth, NCI panel, 48 h

`Cc1ccnc2[nH]c(-c3ccc4ccccc4c3)cc(=O)c12` was tested, and the GI50 was 1.29 µM.

First: Cc1ccnc2[nH]c(-c3ccc4ccccc4c3)cc(=O)c12
Second: CC(=O)N=C1N(/C=C2\C(=O)Oc3ccccc3C2=O)C(=O)/C(=C/c2cccc(Cl)c2Cl)N1C
The TGI of the first is 4.4-fold lower: 4.51 µM for the first, 20 µM for the second.

With `CN=C(n1ccnc1)n1ccnc1` the TGI was > 100 µM.

Test system: OVCAR-4 ovarian
Test: inhibition of tumour cell growth, NCI panel, 48 h

Compared with `Cc1ccnc2[nH]c(-c3ccc4ccccc4c3)cc(=O)c12`, `N#CC1C(=S)NC(c2ccccc2)=CC12CCCCC2` (stereo not drawn) is 19-fold higher in TGI: 4.45 µM for the first, 85.5 µM for the second.

With `CN=C(n1ccnc1)n1ccnc1` the TGI was > 100 µM.

Test system: OVCAR-5 ovarian
Test: inhibition of tumour cell growth, NCI panel, 48 h

Going from `Cc1ccnc2[nH]c(-c3ccc4ccccc4c3)cc(=O)c12` to `CC(=O)N=C1N(/C=C2\C(=O)Oc3ccccc3C2=O)C(=O)/C(=C/c2cccc(Cl)c2Cl)N1C`, the TGI rises from 23.5 µM to > 100 µM.

`N#CC1C(=S)NC(c2ccccc2)=CC12CCCCC2` (stereo not drawn) and `CN=C(n1ccnc1)n1ccnc1` cannot be ordered by TGI: > 100 µM for the first, > 100 µM for the second.

Test system: OVCAR-8 ovarian
Test: inhibition of tumour cell growth, NCI panel, 48 h

Compared with `Cc1ccnc2[nH]c(-c3ccc4ccccc4c3)cc(=O)c12`, `CC(=O)N=C1N(/C=C2\C(=O)Oc3ccccc3C2=O)C(=O)/C(=C/c2cccc(Cl)c2Cl)N1C` is 3.2-fold higher in TGI: 14 µM for the first, 44.3 µM for the second.

`N#CC1C(=S)NC(c2ccccc2)=CC12CCCCC2` (stereo not drawn) and `CN=C(n1ccnc1)n1ccnc1` cannot be ordered by TGI: > 100 µM for the first, > 100 µM for the second.

Test system: PC-3 prostate
Test: inhibition of tumour cell growth, NCI panel, 48 h

In the case of `Cc1ccnc2[nH]c(-c3ccc4ccccc4c3)cc(=O)c12`, the GI50 is reported as 1.38 µM.

Compared with `Cc1ccnc2[nH]c(-c3ccc4ccccc4c3)cc(=O)c12`, `CC(=O)N=C1N(/C=C2\C(=O)Oc3ccccc3C2=O)C(=O)/C(=C/c2cccc(Cl)c2Cl)N1C` is higher in TGI: 6.06 µM for the first, > 100 µM for the second.

`N#CC1C(=S)NC(c2ccccc2)=CC12CCCCC2` (stereo not drawn) and `CN=C(n1ccnc1)n1ccnc1` cannot be ordered by TGI: > 100 µM for the first, > 100 µM for the second.

Test system: RPMI-8226 leukemia
Test: inhibition of tumour cell growth, NCI panel, 48 h

First: Cc1ccnc2[nH]c(-c3ccc4ccccc4c3)cc(=O)c12
Second: CC(=O)N=C1N(/C=C2\C(=O)Oc3ccccc3C2=O)C(=O)/C(=C/c2cccc(Cl)c2Cl)N1C
The TGI of the first is 6.5-fold lower: 8.05 µM for the first, 52.5 µM for the second.

Compared with `N#CC1C(=S)NC(c2ccccc2)=CC12CCCCC2` (stereo not drawn), `CN=C(n1ccnc1)n1ccnc1` is higher in TGI: 54.3 µM for the first, > 100 µM for the second.

Test system: RXF 393 renal
Test: inhibition of tumour cell growth, NCI panel, 48 h

Going from `N#CC1C(=S)NC(c2ccccc2)=CC12CCCCC2` (stereo not drawn) to `CC(=O)N=C1N(/C=C2\C(=O)Oc3ccccc3C2=O)C(=O)/C(=C/c2cccc(Cl)c2Cl)N1C`, the TGI falls from > 100 µM to 84.6 µM.

In the case of `CN=C(n1ccnc1)n1ccnc1`, the TGI is reported as > 100 µM.

Test system: SF-268 CNS
Test: inhibition of tumour cell growth, NCI panel, 48 h

First: Cc1ccnc2[nH]c(-c3ccc4ccccc4c3)cc(=O)c12
Second: CC(=O)N=C1N(/C=C2\C(=O)Oc3ccccc3C2=O)C(=O)/C(=C/c2cccc(Cl)c2Cl)N1C
The TGI of the first is lower: 39.4 µM for the first, > 100 µM for the second.

`N#CC1C(=S)NC(c2ccccc2)=CC12CCCCC2` (stereo not drawn) and `CN=C(n1ccnc1)n1ccnc1` cannot be ordered by TGI: > 100 µM for the first, > 100 µM for the second.

Test system: SF-295 CNS
Test: inhibition of tumour cell growth, NCI panel, 48 h

`Cc1ccnc2[nH]c(-c3ccc4ccccc4c3)cc(=O)c12` showed a GI50 of 1.49 µM.

Going from `Cc1ccnc2[nH]c(-c3ccc4ccccc4c3)cc(=O)c12` to `CC(=O)N=C1N(/C=C2\C(=O)Oc3ccccc3C2=O)C(=O)/C(=C/c2cccc(Cl)c2Cl)N1C`, the TGI rises from 10.9 µM to > 100 µM.

Test system: SF-539 CNS
Test: inhibition of tumour cell growth, NCI panel, 48 h

First: Cc1ccnc2[nH]c(-c3ccc4ccccc4c3)cc(=O)c12
Second: N#CC1C(=S)NC(c2ccccc2)=CC12CCCCC2 (stereo not drawn)
The TGI of the first is lower: 6.79 µM for the first, > 100 µM for the second.

In the case of `CN=C(n1ccnc1)n1ccnc1`, the TGI is reported as > 100 µM.
